Data as given in ChEMBL document CHEMBL2021863, “Design and synthesis of new 4-pyrazolin-3-yl-1,2,3-triazoles and 1,2,3-triazol-4-yl-pyrazolin-1-ylthiazoles as potential antimicrobial agents” (2012).
Values after ≈ are worked out from the molar mass of the structure shown.

Experiments:
Staphylococcus aureus [1] = experiment: Antimicrobial activity against Staphylococcus aureus ATCC 29213 at 100 ug/ml after 24 hrs by agar well diffusion assay; assay type: functional; conditions: ATCC 29213, 24 h, read-out: DIZ
Bacillus subtilis [2] = experiment: Antimicrobial activity against Bacillus subtilis ATCC 6633 at 100 ug/ml after 24 hrs by agar well diffusion assay; assay type: functional; conditions: ATCC 6633, 24 h, read-out: DIZ
Priestia megaterium [3] = experiment: Antimicrobial activity against Bacillus megaterium ATCC 9885 at 100 ug/ml after 24 hrs by agar well diffusion assay; assay type: functional; conditions: ATCC 9885, 24 h, read-out: DIZ
Micrococcus luteus [4] = experiment: Antimicrobial activity against Sarcina lutea at 100 ug/ml after 24 hrs by agar well diffusion assay; assay type: functional; conditions: read-out: DIZ
Klebsiella pneumoniae [5] = experiment: Antimicrobial activity against Klebsiella pneumoniae ATCC 13883 at 100 ug/ml after 24 hrs by agar well diffusion assay; assay type: functional; conditions: ATCC 13883, 24 h, read-out: DIZ
Pseudomonas aeruginosa [6] = experiment: Antimicrobial activity against Pseudomonas aeruginosa ATCC 27953 at 100 ug/ml after 24 hrs by agar well diffusion assay; assay type: functional; conditions: ATCC 27953, 24 h, read-out: DIZ
Escherichia coli [7] = experiment: Antimicrobial activity against Escherichia coli ATCC 25922 at 100 ug/ml after 24 hrs by agar well diffusion assay; assay type: functional; conditions: ATCC 25922, 24 h, read-out: DIZ
Saccharomyces cerevisiae [8] = experiment: Antifungal activity against Saccharomyces cerevisiae at 100 ug/ml after 24 hrs by agar well diffusion assay; assay type: functional; conditions: read-out: DIZ
Candida albicans [9] = experiment: Antifungal activity against Candida albicans NRRL Y-477 at 100 ug/ml after 24 hrs by agar well diffusion assay; assay type: functional; conditions: NRRL Y-477, 24 h, read-out: DIZ
Staphylococcus aureus [10] = experiment: Antimicrobial activity against Staphylococcus aureus ATCC 29213 after 24 hrs by two-fold serial dilution method; assay type: functional; conditions: ATCC 29213, 24 h
Bacillus subtilis [11] = experiment: Antimicrobial activity against Bacillus subtilis ATCC 6633 after 24 hrs by two-fold serial dilution method; assay type: functional; conditions: ATCC 6633, 24 h
Priestia megaterium [12] = experiment: Antimicrobial activity against Bacillus megaterium ATCC 9885 after 24 hrs by two-fold serial dilution method; assay type: functional; conditions: ATCC 9885, 24 h
Micrococcus luteus [13] = experiment: Antimicrobial activity against Sarcina lutea after 24 hrs by two-fold serial dilution method; assay type: functional
Klebsiella pneumoniae [14] = experiment: Antimicrobial activity against Klebsiella pneumoniae ATCC 13883 after 24 hrs by two-fold serial dilution method; assay type: functional; conditions: ATCC 13883, 24 h
Pseudomonas aeruginosa [15] = experiment: Antimicrobial activity against Pseudomonas aeruginosa ATCC 27953 after 24 hrs by two-fold serial dilution method; assay type: functional; conditions: ATCC 27953, 24 h
Escherichia coli [16] = experiment: Antimicrobial activity against Escherichia coli ATCC 25922 after 24 hrs by two-fold serial dilution method; assay type: functional; conditions: ATCC 25922, 24 h
Saccharomyces cerevisiae [17] = experiment: Antifungal activity against Saccharomyces cerevisiae by two-fold serial dilution method; assay type: functional
Candida albicans [18] = experiment: Antifungal activity against Candida albicans NRRL Y-477 by two-fold serial dilution method; assay type: functional
Priestia megaterium [19] = experiment: Antimicrobial activity against Bacillus megaterium ATCC 9885 at 50 ug/ml after 24 hrs by agar well diffusion assay; assay type: functional; conditions: ATCC 9885, 24 h, read-out: DIZ
Micrococcus luteus [20] = experiment: Antimicrobial activity against Sarcina lutea at 50 ug/ml after 24 hrs by agar well diffusion assay; assay type: functional; conditions: read-out: DIZ
Staphylococcus aureus [21] = experiment: microbe, parasite or virus in culture; conditions: ATCC 29213, 24 h, read-out: DIZ
Description: Antimicrobial activity against Staphylococcus aureus ATCC 29213 at 50 ug/ml after 24 hrs by agar well diffusion assay

Bacillus subtilis [22] = experiment: microbe, parasite or virus in culture; conditions: ATCC 6633, 24 h, read-out: DIZ
Description: Antimicrobial activity against Bacillus subtilis ATCC 6633 at 50 ug/ml after 24 hrs by agar well diffusion assay

Klebsiella pneumoniae [23] = experiment: microbe, parasite or virus in culture; conditions: ATCC 13883, 24 h, read-out: DIZ
Description: Antimicrobial activity against Klebsiella pneumoniae ATCC 13883 at 50 ug/ml after 24 hrs by agar well diffusion assay

Pseudomonas aeruginosa [24] = experiment: microbe, parasite or virus in culture; conditions: ATCC 27953, 24 h, read-out: DIZ
Description: Antimicrobial activity against Pseudomonas aeruginosa ATCC 27953 at 50 ug/ml after 24 hrs by agar well diffusion assay

Saccharomyces cerevisiae [25] = experiment: Antifungal activity against Saccharomyces cerevisiae at 50 ug/ml after 24 hrs by agar well diffusion assay; assay type: functional; conditions: read-out: DIZ
Candida albicans [26] = experiment: Antifungal activity against Candida albicans NRRL Y-477 at 50 ug/ml after 24 hrs by agar well diffusion assay; assay type: functional; conditions: NRRL Y-477, 24 h, read-out: DIZ

| SMILES | MIC (Staphylococcus aureus [10]) [µg/mL] | MIC (Bacillus subtilis [11]) [µg/mL] | MIC (Priestia megaterium [12]) [µg/mL] | MIC (Micrococcus luteus [13]) [µg/mL] | MIC (Klebsiella pneumoniae [14]) [µg/mL] | MIC (Pseudomonas aeruginosa [15]) [µg/mL] | MIC (Escherichia coli [16]) [µg/mL] | MIC (Saccharomyces cerevisiae [17]) [µg/mL] | MIC (Candida albicans [18]) [µg/mL] | also measured |
| --- | --- | --- | --- | --- | --- | --- | --- | --- | --- | --- |
| Cc1ccc(-n2nnc(C3=NN(c4nc(-c5ccccc5)cs4)C(c4ccc(F)cc4)C3)c2C)cc1 (stereo not given) | 16.5 (≈ 33.4 µM) | 33 (≈ 66.7 µM) | 33 (≈ 66.7 µM) | 66 (≈ 133 µM) | 33 (≈ 66.7 µM) | 8.25 (≈ 16.7 µM) | 132 (≈ 267 µM) | 33 (≈ 66.7 µM) | 66 (≈ 133 µM) | zone of inhibition at 100 µg/mL (Staphylococcus aureus [1]): 26 mm; zone of inhibition at 100 µg/mL (Bacillus subtilis [2]): 24 mm; zone of inhibition at 100 µg/mL (Priestia megaterium [3]): 24 mm; zone of inhibition at 100 µg/mL (Micrococcus luteus [4]): 22 mm; zone of inhibition at 100 µg/mL (Klebsiella pneumoniae [5]): 26 mm; zone of inhibition at 100 µg/mL (Pseudomonas aeruginosa [6]): 28 mm; zone of inhibition at 100 µg/mL (Escherichia coli [7]): 16 mm; zone of inhibition at 100 µg/mL (Saccharomyces cerevisiae [8]): 22 mm; zone of inhibition at 100 µg/mL (Candida albicans [9]): 20 mm |
| O=C(O)c1cn(C2CC2)c2cc(N3CCNCC3)c(F)cc2c1=O [CIPROFLOXACIN] | 8.25 (≈ 24.9 µM) | 8.25 (≈ 24.9 µM) | 8.25 (≈ 24.9 µM) | 16.5 (≈ 49.8 µM) | 16.5 (≈ 49.8 µM) | 16.5 (≈ 49.8 µM) | 16.5 (≈ 49.8 µM) | – | – | zone of inhibition at 50 µg/mL (Priestia megaterium [19]): 24 mm; zone of inhibition at 50 µg/mL (Micrococcus luteus [20]): 20 mm; zone of inhibition at 50 µg/mL (Staphylococcus aureus [21]): 20 mm; zone of inhibition at 50 µg/mL (Bacillus subtilis [22]): 22 mm; zone of inhibition at 50 µg/mL (Klebsiella pneumoniae [23]): 25 mm; zone of inhibition at 50 µg/mL (Pseudomonas aeruginosa [24]): 24 mm |
| CC(=O)N1CCN(c2ccc(OCC3COC(Cn4ccnc4)(c4ccc(Cl)cc4Cl)O3)cc2)CC1 (stereo not given) [KETOCONAZOLE] | – | – | – | – | – | – | – | 8.25 (≈ 15.5 µM) | 8.25 (≈ 15.5 µM) | zone of inhibition at 50 µg/mL (Saccharomyces cerevisiae [25]): 23 mm; zone of inhibition at 50 µg/mL (Candida albicans [26]): 22 mm |
